#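 Tested at 5 concentrations; 48 h exposure; 96-well plates; endpoints linearly interpolated, else capped at highest concentration. GI50 marks 50% less growth. The concentration for full growth arrest is given as TGI.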
# Legend:
# Assay in all cases: inhibition of tumour cell growth, NCI panel, 48 h
# PC-3 prostate = tested on: PC-3 prostate
# HL-60(TB) leukemia = tested on: HL-60(TB) leukemia
# HOP-62 NSCLC = tested on: HOP-62 NSCLC
# MDA-N = tested on: MDA-N
# CAKI-1 renal = tested on: CAKI-1 renal
# NCI/ADR-RES ovarian = tested on: NCI/ADR-RES ovarian
# EKVX NSCLC = tested on: EKVX NSCLC
# MALME-3M melanoma = tested on: MALME-3M melanoma
# DU-145 prostate = tested on: DU-145 prostate
# LOX IMVI melanoma = tested on: LOX IMVI melanoma
# MDA-MB-435 = tested on: MDA-MB-435
# HCT-116 colon = tested on: HCT-116 colon
# HOP-92 NSCLC = tested on: HOP-92 NSCLC
# SF-539 CNS = tested on: SF-539 CNS
# HS 578T breast = tested on: HS 578T breast
# U251 CNS = tested on: U251 CNS
# OVCAR-4 ovarian = tested on: OVCAR-4 ovarian
# UACC-62 melanoma = tested on: UACC-62 melanoma
# HCT-15 colon = tested on: HCT-15 colon
# 786-0 renal = tested on: 786-0 renal
# KM12 colon = tested on: KM12 colon
# SK-MEL-5 melanoma = tested on: SK-MEL-5 melanoma
# NCI-H23 lung = tested on: NCI-H23 lung
# OVCAR-3 ovarian = tested on: OVCAR-3 ovarian
# HT29 colon = tested on: HT29 colon
# K-562 leukemia = tested on: K-562 leukemia
# UACC-257 melanoma = tested on: UACC-257 melanoma
# MOLT-4 leukemia = tested on: MOLT-4 leukemia
# SNB-19 CNS = tested on: SNB-19 CNS
# BT-549 breast = tested on: BT-549 breast
# CCRF-CEM leukemia = tested on: CCRF-CEM leukemia
# SR leukemia = tested on: SR leukemia
# M14 melanoma = tested on: M14 melanoma
# NCI-H460 lung = tested on: NCI-H460 lung
# TK-10 renal = tested on: TK-10 renal
# SK-MEL-2 melanoma = tested on: SK-MEL-2 melanoma
# UO-31 renal = tested on: UO-31 renal
# SNB-75 CNS = tested on: SNB-75 CNS
# RPMI-8226 leukemia = tested on: RPMI-8226 leukemia
# NCI-H522 lung = tested on: NCI-H522 lung
# IGROV1 ovarian = tested on: IGROV1 ovarian
# HCC-2998 colon = tested on: HCC-2998 colon
# A549 NSCLC = tested on: A549 NSCLC
# OVCAR-5 ovarian = tested on: OVCAR-5 ovarian
# SF-295 CNS = tested on: SF-295 CNS
# SF-268 CNS = tested on: SF-268 CNS
# MDA-MB-231 breast = tested on: MDA-MB-231 breast
# SN12C renal = tested on: SN12C renal
# A498 renal = tested on: A498 renal
# OVCAR-8 ovarian = tested on: OVCAR-8 ovarian
# COLO 205 colon = tested on: COLO 205 colon
# ACHN renal = tested on: ACHN renal
# SW-620 colon = tested on: SW-620 colon
# SK-MEL-28 melanoma = tested on: SK-MEL-28 melanoma
structure (smiles),measurement,setting,value
COc1cc(CCN)c2c(c1OC)SSSSS2,GI50,PC-3 prostate,1.59 µM
same,TGI,PC-3 prostate,2.93 µM
same,GI50,HL-60(TB) leukemia,1.57 µM
same,TGI,HL-60(TB) leukemia,5.09 µM
same,GI50,HOP-62 NSCLC,1.81 µM
same,TGI,HOP-62 NSCLC,3.3 µM
same,GI50,MDA-N,0.706 µM
same,TGI,MDA-N,2.21 µM
same,GI50,CAKI-1 renal,0.503 µM
same,TGI,CAKI-1 renal,1.11 µM
same,GI50,NCI/ADR-RES ovarian,1.63 µM
same,TGI,NCI/ADR-RES ovarian,3.73 µM
same,GI50,EKVX NSCLC,1.26 µM
same,TGI,EKVX NSCLC,2.59 µM
same,GI50,MALME-3M melanoma,2.08 µM
same,TGI,MALME-3M melanoma,4.09 µM
same,GI50,DU-145 prostate,0.276 µM
same,TGI,DU-145 prostate,1.22 µM
same,GI50,LOX IMVI melanoma,0.0127 µM
same,GI50,MDA-MB-435,1.63 µM
same,TGI,MDA-MB-435,3.32 µM
same,GI50,HCT-116 colon,0.22 µM
same,GI50,HOP-92 NSCLC,1.42 µM
same,TGI,HOP-92 NSCLC,2.96 µM
same,GI50,SF-539 CNS,1.25 µM
same,TGI,SF-539 CNS,2.62 µM
same,GI50,HS 578T breast,2.11 µM
same,TGI,HS 578T breast,5.17 µM
same,GI50,U251 CNS,1.08 µM
same,TGI,U251 CNS,2.46 µM
same,GI50,OVCAR-4 ovarian,1.05 µM
same,TGI,OVCAR-4 ovarian,2.51 µM
same,GI50,UACC-62 melanoma,1.37 µM
same,TGI,UACC-62 melanoma,2.97 µM
same,GI50,HCT-15 colon,0.319 µM
same,TGI,HCT-15 colon,1.44 µM
same,GI50,786-0 renal,1.04 µM
same,TGI,786-0 renal,2.22 µM
same,GI50,KM12 colon,1.64 µM
same,TGI,KM12 colon,3.09 µM
same,GI50,SK-MEL-5 melanoma,0.712 µM
same,TGI,SK-MEL-5 melanoma,2.23 µM
same,GI50,NCI-H23 lung,0.478 µM
same,TGI,NCI-H23 lung,1.79 µM
same,GI50,OVCAR-3 ovarian,0.204 µM
same,TGI,OVCAR-3 ovarian,0.538 µM
same,GI50,HT29 colon,0.34 µM
same,TGI,HT29 colon,1.39 µM
same,GI50,K-562 leukemia,0.629 µM
same,TGI,K-562 leukemia,> 100 µM
same,GI50,UACC-257 melanoma,2.58 µM
same,TGI,UACC-257 melanoma,6.8 µM
same,GI50,MOLT-4 leukemia,0.0646 µM
same,TGI,MOLT-4 leukemia,> 100 µM
same,GI50,SNB-19 CNS,2.45 µM
same,TGI,SNB-19 CNS,4.72 µM
same,GI50,BT-549 breast,0.793 µM
same,TGI,BT-549 breast,2.23 µM
same,GI50,CCRF-CEM leukemia,0.395 µM
same,GI50,SR leukemia,0.113 µM
same,TGI,SR leukemia,0.679 µM
same,GI50,M14 melanoma,0.085 µM
same,TGI,M14 melanoma,0.676 µM
same,GI50,NCI-H460 lung,0.767 µM
same,TGI,NCI-H460 lung,2.11 µM
same,GI50,TK-10 renal,1.42 µM
same,TGI,TK-10 renal,3.03 µM
same,GI50,SK-MEL-2 melanoma,1.1 µM
same,TGI,SK-MEL-2 melanoma,2.61 µM
same,GI50,UO-31 renal,0.262 µM
same,TGI,UO-31 renal,1.12 µM
same,GI50,SNB-75 CNS,1.5 µM
same,TGI,SNB-75 CNS,2.87 µM
same,GI50,RPMI-8226 leukemia,0.287 µM
same,TGI,RPMI-8226 leukemia,1.77 µM
same,GI50,NCI-H522 lung,0.203 µM
same,TGI,NCI-H522 lung,0.849 µM
same,GI50,IGROV1 ovarian,0.336 µM
same,TGI,IGROV1 ovarian,1.55 µM
same,GI50,HCC-2998 colon,0.384 µM
same,TGI,HCC-2998 colon,2.08 µM
same,GI50,A549 NSCLC,1.38 µM
same,TGI,A549 NSCLC,2.71 µM
same,GI50,OVCAR-5 ovarian,0.591 µM
same,TGI,OVCAR-5 ovarian,1.48 µM
same,GI50,SF-295 CNS,1.79 µM
same,TGI,SF-295 CNS,3.99 µM
same,GI50,SF-268 CNS,1.95 µM
same,TGI,SF-268 CNS,4.76 µM
same,GI50,MDA-MB-231 breast,1.49 µM
same,TGI,MDA-MB-231 breast,2.92 µM
same,GI50,SN12C renal,1.13 µM
same,TGI,SN12C renal,2.38 µM
same,GI50,A498 renal,1.98 µM
same,TGI,A498 renal,3.64 µM
same,GI50,OVCAR-8 ovarian,1.22 µM
same,TGI,OVCAR-8 ovarian,2.71 µM
same,GI50,COLO 205 colon,0.0184 µM
same,TGI,COLO 205 colon,0.0783 µM
same,GI50,ACHN renal,0.45 µM
same,TGI,ACHN renal,1.61 µM
same,GI50,SW-620 colon,0.101 µM
same,TGI,SW-620 colon,0.283 µM
same,GI50,SK-MEL-28 melanoma,1.79 µM
same,TGI,SK-MEL-28 melanoma,3.43 µM
